# Measured values reported in US7226761B2, “Manufacture of five-carbon sugars and sugar alcohols” (Danisco Sweeteners Oy, priority 1992, dated 2007).
# T1: DOG1 (Saccharomyces cerevisiae, UniProt P38774)
# T1 construct: expressed in transfected cells; host or cells: S. cerevisiae H1104 (W303-1B) transformed with plasmid B1020 (YEplac195, ADH1 promoter-DOG1-ADH1 terminator) = strain H1514; crude cell extract
# T1 sequence (P38774 1-246): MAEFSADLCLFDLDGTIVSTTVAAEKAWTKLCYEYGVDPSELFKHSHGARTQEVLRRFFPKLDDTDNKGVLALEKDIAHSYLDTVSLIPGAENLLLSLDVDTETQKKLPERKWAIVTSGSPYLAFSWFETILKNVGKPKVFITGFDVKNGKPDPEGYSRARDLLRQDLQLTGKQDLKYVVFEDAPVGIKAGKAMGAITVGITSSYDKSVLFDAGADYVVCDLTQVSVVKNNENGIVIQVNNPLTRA
# How the values were obtained:
# DOG1 [1] = biological target: T1, DOG1; assay: Specificity of DOG1 towards sugar phosphates in yeast cell extracts (phosphate release); assay type: biochemical, S. cerevisiae; conditions: 20 mM substrate; cell extract of H1514; relative to 2-deoxyglucose-6-P as 100%
# Experimental: The specificity of DOG1 towards xylulose-5-P, ribulose-5-P, ribose-5-P and 2-deoxyglucose-6-P was determined using 20 mM substrate concentrations. Yeast cell extracts were prepared as described in example 15, except that 50 mM imidazole-HCl, 10 mM MgCl2 buffer, pH 6.0 was used. 10 μl of extract and 210 μl of substrate (20 mM) in the same buffer was incubated for 30 min, 30° C. The reaction was stopped with final 2% of TCA and the phosphate released was measured using ammonium molybdate (15 mM), zinc acetate (100 mM), pH 5.0 as the reagent. The formation of molybdenum blue was measured at 350 nm, and quantified by phosphate standards (Sanz, P. et al., Yeast 10:1195–1202 (1994); Bencini, D. A. et al., Anal. Biochem. 132:254–258 (1983)).
# DOG1 [2] = biological target: T1, DOG1; conditions: 40 mM substrate; relative to 2-deoxyglucose-6-P as 100%; cited from earlier work
# [3] = Stereospecificity of D-xylulose 5-phosphate reduction, products dephosphorylated and analyzed by HPLC; assay type: biochemical; conditions: 10 mM xylulose 5-phosphate, 10 mM NADH, pH 7.0, 37° C.
# Experimental: The stereospecificity of xylulose-phosphate reduction by the B. halodurans XPDH was verified by the following procedure. The reaction between D-xylulose 5-phosphate and NADH was conducted at 37° C. for several hours under the following conditions: 100 mM Tris-HC buffer, pH 7.0, 10 mM xylulose 5-phosphate, 10 mM NADH, […] the enzyme lysate. The reaction products were dephosphorylated with alkaline phosphatase and analyzed by HPLC. […] It should be noted that among the highest-scoring four homologues of the L. rhamnosus XPDH, the enzyme from B. holodurans is the least homologous. This can be interpreted as an indication that the other three homologues (SEQ ID NO:51, 52 and 53) are most probably also xylitol-phosphate dehydrogenases.
# The stereospecificity of D-xylulose 5-phosphate reduction by the E. avium arabitol-phosphate dehydrogenase was verified by the following procedure. The reaction between D-xylulose 5-phosphate and NADH was conducted at 37° C. for several hours under the following conditions: 100 mM Tris-HCl buffer, pH 7.0, 10 mM xylulose 5-phosphate, 10 mM NADH, 1U of the enzyme. The reaction products were dephosphorylated with alkaline phosphatase and analyzed by HPLC. […] There are no other arabitol-phosphate dehydrogenases described in the art.
# Both arabitol-phosphate dehydrogenase genes were expressed using the same tools and methods as those used for the expression of xylitol-phosphate dehydrogenases (Example 26). Briefly, the coding regions of the two arabitol-phosphate dehydrogenase genes were amplified using the chromosomal DNA of the microorganism from which the enzyme was isolated and the appropriate PCR primers. In the case of E. avium the primers were oAPDH 51 […] SEQ ID NO: 71) and the anti-sense primer oAPDH 31 […]) SEQ ID NO: 72. For B. halodurans, the sense primer was oBHDH 5 ([…], SEQ ID NO: 73) and the anti-sense primer was oBHDH 3 ([…], SEQ ID NO: 74). […] The stereospecificity of D-xylulose 5-phosphate reduction by the previously unknown enzyme from B. halodurans was determined as described in Example 30.
# [4] = Xylulose 5-phosphate reductase (XPDH/APDH) activity assay with NADH; assay type: biochemical; conditions: 5 mM xylulose 5-phosphate as the substrate
# Experimental: The strain BD 170 [pGTK24(MXD2)] as well as untransformed strain BD 170 was grown overnight on either LB or LB, containing 10% glucose, cell extracts were prepared and the XDH activity measured. The assay conditions for measuring XDH activity were: 30° C., 50 mM Tris-HCI, pH 7.0, 0.2 mM NADH and 10 mM D-xylulose. Changes of absorption at 340 nm were recorded; one unit of activity was defined as the amount of enzyme that catalyzed the reduction of one […] of substrate per minute under the conditions of assay (assuming the differential absorption coefficient NADH/NAD^+ to be equal to […]). The following levels of XDH activity were measured in the strain BD170 [pGTK24(MXD2)] grown on the two media: LB—0.5 U/mgproteins, LB-glucose 0.05–0.15 U/mgprotein. Thus, glucose appeared to repress the activity of the aldolase promoter 3–10 fold. No XDH activity could be detected in the strain BD170 grown on either of the two media.
# B. subtilis strain BD170 was transformed with pGTK74(LRXPDH) and pGTK74(BHDH2). The transformants were grown overnight in LB containing 25 mg/liter kanamycin, cell extract were prepared by sonication and the activity of XPDH activity was measured. The conditions for measuring the XPDH activity were similar to those used for measuring the xylitol dehydrogenase activity except that xylulose 5-phosphate was used as the substrate (usually at 5 mM concentration) instead of xylulose. The activities were approximately 0.3 U/mg protein for the XPDH from L. rhamnosus and about 0.5 U/mg protein for B. halodurans enzyme.
# Enterococcus avium ATCC 35655 was cultivated at 30° C. in 5 liters of a medium containing: peptone—10 g/l, yeast extract—5 g/l, beef extract 10 g/l, K2HPO4 2 g/l, NaCl—5 g/l, MgSO4—0.02 g/l, MnCl2—0.05 g/l, ammonium citrate 2 g/l, Tween 20—1.1 ml/l, xylitol—20g/l, pH 6.5. […]
# [5] = XDH activity assay in yeast cell extracts, reaction started with D-ribulose; assay type: biochemical; conditions: 1 mM D-ribulose; 0.2 mM NADH; pH 7.0; cell extract
# Source text: (§1) The xylitol dehydrogenases of P. stipitis, Trichoderma reesei and S. cerevisiae were investigated regarding their specificities towards their sugar substrates. Each of the XDH encoding genes was expressed on multi-copy vectors pAOS67, B1070 and B1163, respectively (see Example 12). Yeast strain H1104 (pAOS67, B1163) and H1052 (B1070) harboring each of the multi-copy vectors, H1160, H1886 and H1748, respectively, were cultivated on SCD medium lacking the appropriate selection marker (histidine, leucine, uracil, respectively). Cells were collected by centrifugation and washed twice with 100 mM sodium phosphate buffer pH 7.0. Cells were resuspended at a concentration of 500 mg/ml wet weight, corresponding approximately to 75 mg/ml dry weight, in the same buffer. 1 ml of this suspension was vortexed with 1 g glass beads (0,5 mm Ø) for 15 min. at 4° C., centrifuged in an Eppendorf centrifuge (13,000 rpm) and the supernatant was assayed. XDH activity was assayed in a medium containing 50 mM Pipes KOH pH 7.0, 0.2 mM NADH. The reaction was started by addition of D-xylulose or D-ribulose at a final concentration of 1 mM. The activity was measured by following the adsorption of NADH at 340 nm.
# [6] = XDH activity assay in yeast cell extracts, reaction started with D-xylulose; assay type: biochemical; conditions: 1 mM D-xylulose; 0.2 mM NADH; pH 7.0; cell extract
# Source text: as §1
Molecule,Relative activity (20 mM) (DOG1 [1]) [%],Activity reported in the literature (40 mM) (DOG1 [2]) [%],"specific activity towards D-ribulose, normalized to D-xylulose activity being 100% [5] [%]","specific activity towards D-xylulose, normalized to D-xylulose activity being 100% [6] [%]",further results
"O=CC[C@@H](O)[C@H](O)[C@H](O)COP(=O)(O)O [2-deoxyglucose-6-P, 2-deoxyglucose-6-phosphate]",100,100,,,
"O=C[C@H](O)[C@H](O)[C@H](O)COP(=O)(O)O [ribose-5-P, ribose-5-phosphate]",52,42,,,
"O=C(CO)[C@H](O)[C@H](O)COP(=O)(O)O [ribulose-5-P, ribulose-5-phosphate]",6,7,,,
"arabitol-phosphate dehydrogenase: arabitol-phosphate dehydrogenase purified from Enterococcus avium ATCC 35655, SEQ ID NO:69 (protein, Bacillus halodurans) MSKTMKGVSKQAPGYDQMAFIDLSVPEATDDKVLIKVAYTGICGSDIHTFKGEYKNPTTPVVLGHEFSGQVVEVGANVTKVKVGDRVTSETTFYVCGECDYCKEKQYNLCPHRKGIGTQQNGSMANYVLAREESIHLLPDHLSYEGAAMSEPLACCVHAMYQKSHLELKDTIIIMGPGPIGLYLLQIAKEIGAFVIMTGITKDAHRLALAKKLGADVIVDTMKEDLAKVVNEITDGYGVDKVYDASGAVPAVNASLPLIRKQGQFIQVGLFANKMVDLDTESIIQREIEYIGSRSQNPYDWPIAIHLLAKGAINIDEMITKKYPLTEWREAFDKVMEGNEIKVMIESNPEEF",,,,,products found in the reaction mixture / stereospecificity [3]: Only arabitol and xylulose (corresponding to the unreacted xylulose 5-phosphate) were found; specific activity of purified enzyme [4]: about 12 U/mgprotein
"Pichia stipitis XDH: xylitol dehydrogenase encoded by the XYL2 gene from Pichia stipitis, expressed in yeast on pAOS67 (protein, UniProt P22144 1-363, looked up) D-xylulose reductase: MTANPSLVLNKIDDISFETYDAPEISEPTDVLVQVKKTGICGSDIHFYAHGRIGNFVLTKPMVLGHESAGTVVQVGKGVTSLKVGDNVAIEPGIPSRFSDEYKSGHYNLCPHMAFAATPNSKEGEPNPPGTLCKYFKSPEDFLVKLPDHVSLELGALVEPLSVGVHASKLGSVAFGDYVAVFGAGPVGLLAAAVAKTFGAKGVIVVDIFDNKLKMAKDIGAATHTFNSKTGGSEELIKAFGGNVPNVVLECTGAEPCIKLGVDAIAPGGRFVQVGNAAGPVSFPITVFAMKELTLFGSFRYGFNDYKTAVGIFDTNYQNGRENAPIDFEQLITHRYKFKDAIEAYDLVRAGKGAVKCLIDGPE",,,25,100,
"Saccharomyces cerevisiae XDH: enzyme having xylitol dehydrogenase activity encoded by S. cerevisiae ORF YLR070c, expressed on B1163 (protein, UniProt Q07993 1-356, looked up) D-xylulose reductase: MTDLTTQEAIVLERPGKITLTNVSIPKISDPNEVIIQIKATGICGSDIHYYTHGRIANYVVESPMVLGHESSGIVALIGENVKTLKVGDRVALEPGIPDRFSPEMKEGRYNLDPNLKFAATPPFDGTLTKYYKTMKDFVYKLPDDVSFEEGALIEPLSVAIHANKLAKIKFGARCVVFGAGPIGLLAGKVASVFGAADVVFVDLLENKLETARQFGATHIVNSGDLPHGVTVDSVIKKAIGKKGADVVFECSGAEPCVRAGIEVCKAGGTIVQVGMGQEEIQFPISIIPTKELTFQGCFRYCQGDYSDSIELVSSRKLSLKPFITHRYSFKDAVEAFEETSHHPLNNIKTIIEGPE",,,10,100,
